The METLIN SMRT retention time set (Domingo-Almenara et al. 2019)

assay: gradient 5% acetonitrile 3 min, to 50% in 2 min, to 85% in 15 min, held 3 min, 100 µL/min; conditions: column: Zorbax Extend-C18 2.1 x 50 mm; eluents: water / acetonitrile, 0.1% formic acid
How it was run: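 Each retention time is based on an adduct peak selected computationally and verified by manual inspection. Measurements used HPLC–quadrupole time-of-flight mass spectrometry in positive and negative ionization mode on mixtures of ~100 pure standards. Chromatography ran on a Zorbax Extend-C18 column (2.1 × 50 mm, 1.8 μm) at 100 μL/min with water and acetonitrile, each containing 0.1% formic acid, and dead and dwell volumes of 40 μL and 900 μL.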

Going from `CN1CCN(C(=O)c2ccc(S(=O)(=O)c3ccccc3)s2)CC1` to `O=C1NC2(CCN(C(=O)c3ccccc3)CC2)N=C1c1ccc(Cl)cc1`, the RP-LC retention time rises from 605 s to 842 s.

Going from `O=C(NCCn1nnc2cc(C(=O)N3CCCC3)ccc21)Nc1ccc(F)cc1` to `Cc1nc(-c2ccc(NC(=O)N3CCN(c4ccc(F)cc4)CC3)cc2)no1`, the RP-LC retention time rises from 662 s to 859 s.

Compared with `COc1cc(NC(=O)CSc2cc(N3CCN(c4ccccc4OC)CC3)ncn2)cc(OC)c1`, `COc1ccc(Cl)cc1NC(=O)CSc1ccc2nnc(-c3cccs3)n2n1` is lower in RP-LC retention time: 957 s for the first, 766 s for the second.

Compared with `O=C(CSc1cn(CCNC(=O)c2ccccc2)c2ccccc12)Nc1ccccc1F`, `COC(=O)c1c(-c2ccccc2)noc1NCc1ccccc1` is higher in RP-LC retention time: 863 s for the first, 1050 s for the second.

Going from `CCc1ccc(OCCS(=O)(=O)Nc2cc(NC(C)=O)ccc2OC)cc1` to `O=C(NCc1ccc2c(c1)OCO2)c1ccc(OCC(=O)C2CC2)cc1`, the RP-LC retention time falls from 808 s to 736 s.

First: Cc1ccc(CNC(=O)C2(C)Cn3cnc(C(=O)NCc4cccc(C)c4)c3C(=O)N2C2CC2)cc1 (stereo not given)
Second: Cc1cc(C)cc(NC(=O)N2CCCC(C)(C(=O)NCc3ccccc3)C2)c1 (stereo not given)
The RP-LC retention time of the first is lower: 813 s for the first, 959 s for the second.

Going from `CCCOc1ccc(CNC(=O)C2CCc3nc(N4CCCCC4)ncc3C2)cc1` (stereo not given) to `CCOc1ccc(N(CC)C(=O)c2nc(C)n(C3CCN(S(C)(=O)=O)CC3)c2C)cc1`, the RP-LC retention time falls from 850 s to 640 s.

First: CCOC(=O)c1cc(C2CC2)nc2c1c(=O)n(Cc1ccccc1C)c(=O)n2C
Second: CCOC(=O)c1nc(N2CCCC(C)C2)c2ccccc2n1 (stereo not given)
The RP-LC retention time of the first is higher: 1240 s for the first, 759 s for the second.

First: CCOC(=O)c1c(S(=O)(=O)NCc2ccc3c(c2)OCO3)n[nH]c1CC
Second: CCn1nccc1C(=O)Nc1ccc2c(c1)OCO2
The RP-LC retention time of the first is higher: 718 s for the first, 693 s for the second.

Going from `Cc1cc(NS(=O)(=O)c2cn(C(C)C)c3ncccc23)ccc1F` to `CCOC(=O)c1nc(Nc2cccc(SC)c2)c2ccccc2n1`, the RP-LC retention time falls from 948 s to 940 s.

First: CN1C(=O)c2cccn2CC1C(=O)N1CCN(c2ncccn2)CC1 (stereo not given)
Second: Cc1ccc(N2CCN(C(=O)c3cn(-c4ccc(NC(=O)C5CC5)cn4)cn3)CC2)c(C)c1
The RP-LC retention time of the first is lower: 609 s for the first, 913 s for the second.

Going from `CCc1nc2cc3c(cc2n1CC(=O)Nc1ccc(Br)cc1)OCCO3` to `Cc1ccc2nc(-c3cccc(Cl)c3)c(Nc3ccc4c(c3)OCCO4)n2c1`, the RP-LC retention time rises from 707 s to 724 s.

First: COc1cccc(NC(=O)C2CCN(C(=O)C3Sc4ccccc4NC3=O)CC2)c1 (stereo not given)
Second: O=C(NC1CCc2ccccc21)C1CCN(C(=O)c2ncn3c2COC(c2ccc(F)cc2)C3)CC1 (stereo not given)
The RP-LC retention time of the first is lower: 752 s for the first, 792 s for the second.

First: Cc1ccc(C(=O)N2CCCCCCNC(=O)[C@@H]3CCC[C@@H]32)s1
Second: O=C1NCCCCCN(C(=O)CN2CCCCCC2)[C@H]2CCC[C@@H]12
The RP-LC retention time of the first is higher: 792 s for the first, 567 s for the second.

Compared with `CN(C)c1ccc(C(=O)N2CCCC(COc3ccc(C(=O)NC4CC4)cc3)C2)cc1` (stereo not given), `CCN(CC)C(=O)c1ccc2oc(CN3CCN(C(=O)NC4CCCC4)CC3)nc2c1` is lower in RP-LC retention time: 780 s for the first, 630 s for the second.

First: Cc1cccc(C(=O)Nc2nc(-c3ccc4c(c3)NC(=O)CO4)c(C)s2)c1
Second: Cc1cccc(-c2nc(Cn3nnc(-c4nc(-c5cccs5)no4)c3C)c(C)o2)c1
The RP-LC retention time of the first is lower: 918 s for the first, 1220 s for the second.

Compared with `Cc1ccccc1CNC(=O)C1(C)CCCN(C(=O)NCc2ccco2)C1` (stereo not given), `CCCc1cc(C2CCCN2C(=O)Nc2ccccc2OC)no1` (stereo not given) is higher in RP-LC retention time: 809 s for the first, 901 s for the second.

Compared with `O=S(=O)(c1ccccc1)N1CCC(c2noc(-c3ccc(Cl)cc3)n2)CC1`, `O=C(CCc1c(-c2ccc(Cl)cc2)nc2ccccn12)NC1CCCC1` is lower in RP-LC retention time: 1170 s for the first, 638 s for the second.

Going from `COc1ccc(C(O)CN2CCN(c3ccc(F)cc3)CC2)cc1` (stereo not given) to `Cc1cc(NC(=O)CCc2nc(-c3ccc(N4CCCC4)cc3)no2)ccc1Br`, the RP-LC retention time rises from 652 s to 1230 s.

Compared with `CCOc1ccc(S(=O)(=O)N(CC)CC(=O)N2CCNCC2)cc1`, `O=C(NCC1CCN(S(=O)(=O)C2CC2)CC1)c1cnc2ccccc2n1` is higher in RP-LC retention time: 623 s for the first, 704 s for the second.

First: CCCCN(C)C(=O)c1cn2cc(Cl)ccc2n1
Second: CSc1ccc(-c2noc(Cn3nc(-c4ccccc4Cl)ccc3=O)n2)cc1
The RP-LC retention time of the first is lower: 736 s for the first, 1030 s for the second.

Going from `Cc1cc(OCC(=O)N2CCC3(O)CCCCC3C2)c2c(C)c(C)c(=O)oc2c1` (stereo not given) to `O=C(CC1=CCCCC1)N1CCC(C2CCNC2)CC1` (stereo not given), the RP-LC retention time falls from 798 s to 602 s.

Work on `CC(C)c1nc2nccc(-c3ccccc3)n2n1` yielded an RP-LC retention time of 827 s.
